Assay results: patent publication EP0367747A2, “Dideoxy-L-arabinitol derivatives as antiviral compounds” (G.D. Searle & Co., priority 1988, dated 1990)
Where two headings read alike, the source gives them in different places. Marks after values point to notes of the source that are not given here.

Experiments:
Yeast alpha-glucosidase = biological target: T1, Yeast alpha-glucosidase (Saccharomyces cerevisiae, UniProt P53341); experiment: Alpha-glucosidase inhibition assay, pH 7.4 (p-nitrophenol release); assay type: biochemical; details: for inhibition at 1000 µM: at 1.0 mM
T1 construct: purchased Sigma
T1 sequence (P53341 whole entry): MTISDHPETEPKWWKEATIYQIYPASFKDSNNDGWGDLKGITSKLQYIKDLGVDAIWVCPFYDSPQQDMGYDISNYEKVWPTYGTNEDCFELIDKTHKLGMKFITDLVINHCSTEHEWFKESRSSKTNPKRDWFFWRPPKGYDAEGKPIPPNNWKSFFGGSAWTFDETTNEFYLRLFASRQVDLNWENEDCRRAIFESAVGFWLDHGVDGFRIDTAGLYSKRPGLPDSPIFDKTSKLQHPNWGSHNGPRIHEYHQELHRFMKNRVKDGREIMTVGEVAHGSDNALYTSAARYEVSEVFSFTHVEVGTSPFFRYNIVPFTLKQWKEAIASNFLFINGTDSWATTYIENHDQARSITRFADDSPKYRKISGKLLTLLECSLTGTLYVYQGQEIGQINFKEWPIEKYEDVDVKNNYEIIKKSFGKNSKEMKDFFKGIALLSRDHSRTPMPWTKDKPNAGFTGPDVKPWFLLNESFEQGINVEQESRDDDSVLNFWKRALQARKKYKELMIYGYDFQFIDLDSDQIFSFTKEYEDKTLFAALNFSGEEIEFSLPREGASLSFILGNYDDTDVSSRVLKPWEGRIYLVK
Protocol: (§1) Yeast alpha-glucosidase and almond beta-glucosidase activities were measured by a modification of the method of Evans, et al., Phytochemistry 22, 768-770 (1983). The modifications included 1) assay of activities at pH 7.4 in HEPES (N-2-hydroxyethylpiperazine-N′-2-ethanesulfonic acid) buffer, 2) measurement in 96 well microtiter plates and 3) inclusion of 10% DMSO in control and test samples. The release of p-nitrophenol from the substrate p-nitrophenylglycoside was measured spectrophotometrically in the presence and absence of test compound. Each assay included a known inhibitor of the enzyme as a standard. IC₅₀ values were determined for compounds which inhibited the enzymes more than 50% at a 1 millimolar concentration. To 100 µl 50 mM HEPES buffer, pH 7.4, in a microtiter plate, add 20 µl test compound in DMSO (DMSO alone in control), 40 µl (0.013 units) yeast alpha-glucosidase (Sigma) in HEPES buffer and pre-incubate at room temperature for 15 minutes. […] Absorption change was measured at 15 to 25 minutes (reaction was linear for at least 30 minutes). Each sample was tested in triplicate. IC₅₀ values were determined from the linear portion of the log concentration vs % inhibition curve obtained from a minimum of 3 points. Deoxynojirimycin was used as standard inhibitor.

almond beta-glucosidase [1] = experiment: Beta-glucosidase inhibition assay, pH 7.4 (p-nitrophenol release); assay type: biochemical; details: for β-Glucosidase pH 7.4 % Inhibition: Table 5; for IC50: Table 3, at pH 7.4, read-out: β-glucosidase IC₅₀
Protocol: as §1, with “µl (0.136” for “µl (0.013”, “units) beta-glucosidase” for “units) yeast alpha-glucosidase”, “(reaction is” for “(reaction was”, “points. Castanospermine” for “points. Deoxynojirimycin”

almond beta-glucosidase [2] = experiment: Beta-glucosidase inhibition assay, pH 4.8 (p-nitrophenol release); assay type: biochemical; details: for β-Glucosidase pH 4.8 % Inhibition: Table 5; for IC50: Table 3, at pH 4.8, read-out: β-glucosidase IC₅₀
Protocol: Yeast alpha-glucosidase and almond beta-glucosidase activities were measured by a modification of the method of Evans, et al., Phytochemistry 22, 768-770 (1983). The modifications included 1) assay of activities at pH 7.4 in HEPES (N-2-hydroxyethylpiperazine-N′-2-ethanesulfonic acid) buffer, 2) measurement in 96 well microtiter plates and 3) inclusion of 10% DMSO in control and test samples. The release of p-nitrophenol from the substrate p-nitrophenylglycoside was measured spectrophotometrically in the presence and absence of test compound. Each assay included a known inhibitor of the enzyme as a standard. IC₅₀ values were determined for compounds which inhibited the enzymes more than 50% at a 1 millimolar concentration. To 100 µl 50 mM sodium citrate buffer, pH 4.8, in a microtiter plate, add 15 µl test compound in DMSO (DMSO alone in control), 20 µl (.017 units) beta-glucosidase (Sigma) in citrate buffer and pre-incubate at room temperature for 15 minutes. Add 25 µl 2.50 mM p-nitrophenyl-beta-D-glucopyranside in citrate buffer, as substrate. Incubate at room temperature 20 minutes (reaction is linear for at least 30 minutes). Add 50 µl 0.4 M NaOH. Read absortion change at 405 nm in a Biotek EIA Autoreader. Each sample was tested in triplicate. IC₅₀ values were determined from the linear portion of the log concentration vs % inhibition curve obtained from a minimum of 3 points. Castanospermine was used as standard inhibitor.

visna virus = experiment: Inhibition of visna virus in vitro (plaque reduction assay / 96 well plate assay) in SCP cells; assay type: cell-based; design: key to Antiviral Activity: A = active compound; I = inactive; details: for EC50: inhibition of visna virus, read-out: EC₅₀; for Antiviral Activity: Table 4
Protocol: Various compounds as prepared above were tested for inhibition of visna virus in vitro in a plaque reduction assay as follows:
Sheep choroid plexus(SCP) cells were obtained from American Type Culture Collection (ATCC) catalogue number CRL 1700 and were routinely passaged in vitro in Dulbecco's Modified Eagles (DME) medium supplemented with 20% fetal bovine serum (FBS). SCP cells were passaged once per week at a 1:2 or 1:3 split ratio. Visna was titrated by plaque assay in six-well plates. Virus pools were stored at -70°C.
(§2) SCP cells were cultured in 6-well plates to confluence. Wells were washed two times with serum free Minimal Essential Medium (MEM) to remove FBS. 0.2ml of virus was added per well in MEM supplemented with 4mM glutamine and gentamycin. After 1 hour adsorption, the virus was aspirated from each well. The appropriate concentration of each compound in 5 ml of Medium 199 (M-199) supplemented with 2% lamb serum, 4mM glutamine, 0.5% agarose and gentamycin was added to each well. Cultures were incubated at 37°C in a humidified 5% CO₂ incubator for 3-4 weeks. To terminate the test: cultures were fixed in 10% formalin, the agar removed, the monolayers stained with 1% crystal violet and plaques counted. Each compound concentration was run in triplicate. […] 0 is no toxicity observed while 4 is total lysing of the cell monolayer.
The 96 well plate assay was performed similarly to the plaque assay above with modifications. SCP cells were seeded at 1 x 10⁴ cells per well in 0.1 ml DME medium. When confluent, the wells were washed with serum free MEM and 25ul of virus added in M-199 supplemented with 2% lamb serum. After 1 hour, 75uL of medium containing test compound was added to each well containing virus. After 2-3 weeks incubation the cytopathic effect of the virus was determined by staining with a vital stain. Cell viability was measured by determining stain density using a 96 well plate reader.

[3] = test system: Sheep choroid plexus(SCP) cells; experiment: Toxicity of compounds in control wells without virus, graded morphologically 0 to 4; assay type: cell-based; design: key: 0 = no toxicity; 4 = total cell lyses; details: 0 to 4 scale
Protocol: as §2
Control wells without virus were completed to determine the toxicity of compounds.

[4] = Table 5, values marked *, read-out: α-Glucosidase IC₅₀
[5] = Table 5, read-out: α-Glucosidase % Inhibition
[6] = Table 3, pH 7.4, read-out: α-glucosidase IC₅₀

Row | IC50 (Yeast alpha-glucosidase; [4]) [µM] | β-Glucosidase pH 7.4 % Inhibition (almond beta-glucosidase [1]; at 1.0 mM) [%] | β-Glucosidase pH 4.8 % Inhibition (almond beta-glucosidase [2]; at 1.0 mM) [%] | EC50 (visna virus; Visna-maedi virus) [µM] | Compound | Toxicity ([3]; Table 4, 0.1 mM Concn.) | Toxicity ([3]; Table 4, 1.0 mM Concn.) | Toxicity ([3]; Table 4, 0.01 mM Concn.) | further results
1 | 482 | 4 | 4 |  | O=C(OCc1ccccc1)N1C[C@H](O)[C@@H](O)[C@@H]1CO [Example 17, 1,4-(Benzyloxycarbonylimino)-1,4-dideoxy-L-arabinitol] |  |  |  | 
2 |  |  |  | 1000 | CCCCN1CC(OC(=O)CCC)C(OC(=O)CCC)C1COC(=O)CCC [Example 26, 1,4-(Butylimino)-1,4-dideoxy-L-arabinitol, tributyrate] | 0 | 2 |  | inhibition at 100 µM (Yeast alpha-glucosidase; [5]): 20%; β-Glucosidase pH 7.4 % Inhibition (almond beta-glucosidase [1]; at 100 µM (***)): 1%***; β-Glucosidase pH 4.8 % Inhibition (almond beta-glucosidase [2]; at 100 µM (***)): 1%***
3 |  | 6 | 0 | 1000 | CC(=O)OC[C@H]1[C@H](OC(C)=O)[C@@H](OC(C)=O)CN1C(=O)Cc1ccccc1 [Example 28, 1,4-(Phenylacetylimino)-1,4-dideoxy-L-arabinitol, triacetate] | 0 | 1 | 0 | Antiviral Activity (visna virus; 0.01 mM Concn.): A; Antiviral Activity (visna virus; 0.1 mM Concn.): A; Antiviral Activity (visna virus; 1.0 mM Concn.): A; inhibition at 1000 µM (Yeast alpha-glucosidase; [5]): 30%
4 | 227 | 26 | 20 |  | CCCCN1CC(O)C(O)C1CO [Example 4, 1,4-(Butylimino)-1,4-dideoxy-L-arabinitol] | 0 | 0 | 0 | 
5 |  |  |  |  | CCC(=O)OC[C@H]1[C@H](OC(=O)CC)[C@@H](OC(=O)CC)CN1C(=O)OCc1ccccc1 [Example 29, 1,4-(Benzyloxycarbonylimino)-1,4-dideoxy-L-arabinitol, tripropionate] | 0 |  | 0 | Antiviral Activity (visna virus; 0.001 mM Concn.): A; Antiviral Activity (visna virus; 0.01 mM Concn.): A; Antiviral Activity (visna virus; 0.1 mM Concn.): A; Toxicity ([3]; Table 4, 0.001 mM Concn.): 0; inhibition at 100 µM (Yeast alpha-glucosidase; [5]): 41%; β-Glucosidase pH 7.4 % Inhibition (almond beta-glucosidase [1]; at 100 µM (***)): 5%***; β-Glucosidase pH 4.8 % Inhibition (almond beta-glucosidase [2]; at 100 µM (***)): 2%***
6 | 178 | 45 | 14 |  | OCCN1C[C@H](O)[C@@H](O)[C@@H]1CO [Example 2, 1,4-Dideoxy-1,4-([2-hydroxyethyl]imino)-L-arabinitol] | 0 |  | 0 | 
7 | 33 | 1 | 7 |  | CC(C)C(=O)OC[C@H]1[C@H](OC(=O)C(C)C)[C@@H](OC(=O)C(C)C)CN1C(=O)OCc1ccccc1 [Example 24, 1,4-(Benzyloxycarbonylimino)-1,4-dideoxy-L-arabinitol, triisobutyrate] |  |  |  | 
8 |  |  |  | 100 | CN1CC(O)C(O)C1CO [Example 18, 1,4-(Methylimino)-1,4-dideoxy-L-arabinitol] |  |  |  | IC50 (Yeast alpha-glucosidase; [6]): 46 µM; IC50 (almond beta-glucosidase [1]): 23 µM; IC50 (almond beta-glucosidase [2]): 36 µM
9 |  | 6 | 5 | 1000 | CC(=O)OC[C@H]1[C@H](OC(C)=O)[C@@H](OC(C)=O)CN1C(=O)OCc1ccccc1 [Example 20, 1,4-(Benzyloxycarbonylimino)-1,4-dideoxy-L-arabinitol, triacetate] | 0 | 0 |  | inhibition at 1000 µM (Yeast alpha-glucosidase; [5]): 18%
10 |  | 26 | 19 |  | OC[C@H]1[C@H](O)[C@@H](O)CN1Cc1ccc(Cl)cc1 [Example 8, 1,4-([4-Chlorophenyl]methylimino)-1,4-dideoxy-L-arabinitol] |  | 3 | 0 | IC50 (Yeast alpha-glucosidase; [6]): 2.2 µM; IC50 (almond beta-glucosidase [1]): > 1000 µM; IC50 (almond beta-glucosidase [2]): > 1000 µM
11 |  | 31 | 34 |  | OC[C@H]1[C@H](O)[C@@H](O)CN1CCCc1ccccc1 [Example 16, 1,4-([3-Propylphenyl]imino)-1,4-dideoxy-L-arabinitol] | 0 | 3 | 0 | IC50 (Yeast alpha-glucosidase; [6]): 13 µM; IC50 (almond beta-glucosidase [1]): > 1000 µM; IC50 (almond beta-glucosidase [2]): > 1000 µM
12 |  |  |  |  | CCCC(=O)OC[C@H]1[C@H](OC(=O)CCC)[C@@H](OC(=O)CCC)CN1C(=O)OCc1ccccc1 [Example 22, 1,4-(Benzyloxycarbonylimino)-1,4-dideoxy-L-arabinitol, tributyrate] | 1 | 2 |  | inhibition at 10 µM (Yeast alpha-glucosidase; Table 5, at 10 µM (**), read-out: α-Glucosidase % Inhibition): 30%; β-Glucosidase pH 7.4 % Inhibition (almond beta-glucosidase [1]; at 10 µM (**)): 2%**; β-Glucosidase pH 4.8 % Inhibition (almond beta-glucosidase [2]; at 10 µM (**)): 11%**
13 |  | 5 | 12 |  | CC(=O)OCCN1C[C@H](OC(C)=O)[C@@H](OC(C)=O)[C@@H]1COC(C)=O [Example 3, 1,4-([2-Acetyloxyethyl]imino)-1,4-dideoxy-L-arabinitol, triacetate] |  |  |  | inhibition at 1 µM (visna virus; Visna-maedi virus, Concentration 0.001 mM): -46%; inhibition at 10 µM (visna virus; Visna-maedi virus, Concentration 0.01 mM): -64%; inhibition at 100 µM (visna virus; Visna-maedi virus, Concentration 0.1 mM): 72%; inhibition at 1000 µM (visna virus; Visna-maedi virus, Concentration 1.0 mM): 90%; Toxicity ([3]; Concentration 0.001 mM): 0; Toxicity ([3]; Concentration 0.01 mM): 0; Toxicity ([3]; Concentration 0.1 mM): 0; Toxicity ([3]; Concentration 1.0 mM): 0; inhibition at 1000 µM (Yeast alpha-glucosidase; [5]): 15%
